Results reported in US12454703B2, “Controllable transcription” (Cambridge Enterprise Limited (GB/GB), priority 2016, dated 2025).

Key:
induced myocytes = assay: Contraction of induced skeletal myocytes; assay type: cell-based, human; details: nanomolar concentrations
[1] = test system: EGFPd2 homozygous sOPTiKO hESCs; assay: Inducible CRISPR/Cas9 knockout of EGFPd2 reporter in hESCs; assay type: cell-based, human
Description: For single site OPTIKO, AAVS1 targeting was performed by nucleofection. hESCs pre-treated for 16 h with 10 μM Y-27632 (Tocris) were dissociated to clumps of 2-8 cells using Accutase (Gibco), and 2×10^6 cells were nucleofected in 100 μl with a total of 12 μg of DNA (4 μg each for the two ZFN plasmids, and 2 μg each for the two targeting vectors) using the Lonza P3 Primary Cell 4D-Nucleofector X Kit and the cycle CA-137 on a Lonza 4D-Nucleofector System, all according to manufacturer's instructions. Nucleofected hESCs were plated onto a feeder layer of irradiated DR4 (puromycin and neomycin resistant) mouse embryonic fibroblasts and cultured in KSR media supplemented with 4 ng ml-1 FGF2 and 10 μM Y-27632 (this last only for the first 24 h). After 4 days, hPSC colonies carrying both puromycin and neomycin resistance gene were selected for 7-10 days with 25 μg ml-1 of Geneticin (G418 Sulfate, Gibco) and 0.5 μg ml-1 Puromycin. Individual clones were then picked and expanded in feeder-free conditions.
Unless otherwise described in the figure legends or Examples, tetracycline hydrochloride (sigma-Aldrich) was used at 1 μg ml^−1 to induce gene knockdown or knockout. Induction of neurons Pluripotent OPTi-NGN2 cells were dissociated into single cells with TrypLE and plated onto Matrigel (35 μg/cm^2, Scientific Laboratory Supplies) coated dishes at a density of 75.000 cells per well of a 12 well plate. […] After 2 days of induction, the medium was switched to Neurobasal-medium supplemented with Glutamax (100×), B27 (50×, Gibco), BDNF (10 ng/ml, Peprotech), NT3 (10 ng/ml, R&D Systems), Penicillin/Streptomycin (1%), and doxycycline (1 μg/ml).

Description for OPTi-MYOD1 hPSCs: Pluripotent OPTi-MYOD1 cells were dissociated into single cells with TrypLE and plated onto gelatine/MEF-medium coated dishes at a density of 100.000 cells per well of a 12 well plate. Forward programming was initiated 24-48 hours after the split. […] After 5 days of induction, the medium was supplemented with CHIR99021 (3 μM, Tocris) and heat-inactivated horse serum (2%, Gibco) to enhance maturation.
For analysis of EGFP expression cells were harvested with TrypLE Select (Gibco) for 5-10 minutes at 37° C. to obtain a single cell suspension. Following a wash with PBS, cells were resuspended in ice-cold PBS supplemented with DAPI (10 μg/ml), and incubated for 5 minutes on ice. Cells were analyzed using a Cyan ADP flow-cytometer to determine the levels of EGFP expression of viable cells (DAPI negative). For staining and analysis of myosin heavy chain expression cells were harvested with TrypLE Select (as for EGFP expression analysis), washed once with PBS, and fixed and permeabilized with Cytofix/Cytoperm solution (BD Biosciences). Subsequently, cells were washed and blocked in Perm/Wash buffer (BD Biosciences) supplemented with 3% bovine serum albumin (BSA) at +4° C. overnight. […] After three washes with Perm/Wash buffer cells were analyzed with a Cyan ADP flowcytometer to determine the levels of MHC expression. […]

`CC1=C(/C=C/C(C)=C/C=C/C(C)=C/C(=O)O)C(C)(C)CCC1` [all-trans retinoic acid] was tested, and the “conversion into myogenin and myosin heavy chain (MHC) double-positive myocytes” value (OPTi-MYOD1 hPSCs; in conjunction with MYOD1 overexpression, by day 5 after induction) was “rapid and near-complete conversion” and the “nature of the RA effect on myocyte conversion” value (OPTi-MYOD1 hPSCs; mediated through RA-receptor isoforms RARa and RARB) was “concentration dependent”.

In the case of `C[N+](C)(C)CCOC(N)=O` [carbachol], the muscle fiber contraction (induced myocytes) was “complete muscle fiber contraction”.

With `CN(C)[C@@H]1C(O)=C(C(N)=O)C(=O)[C@@]2(O)C(O)=C3C(=O)c4c(O)cccc4[C@@](C)(O)[C@H]3C[C@@H]12` [tetracycline] the “reduction in EGFPd2 fluorescence” value ([1]; five days following tetracycline induction, EGFPd2 homozygous cells) was 50%, the knockout ([1]; optimal gRNA sequence, 2 days of induction) was “up to 90%” and the “EGFPd2 homozygous cells with full loss of EGFPd2 fluorescence” value ([1]; prolonged treatment with tetracycline) was “up to 75%”. It also gave a knockout efficiency ([1]; simultaneous induction of three copies of the same gRNA) of 95%.
